Results reported in PubChem BioAssay AID330 (DTP/NCI, 2004).
Where “and” joins values, the source holds several entries; their conditions need not be identical. Equal entries are not always repeated. Toxic doses and inconclusive results are not listed.

System: P388 leukemia ip, CD2F1 mice, survival T/C
Experiment: NCI In Vivo Anticancer Drug Screen. Data for tumor model P388 Leukemia (intraperitoneal) in CD2F1 (CDF1) mice
Details: endpoint: median survival time, higher = longer survival
Summary of the method: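 Mice carrying the transplanted tumor received test compound or vehicle. Survival was recorded in each group, and the value is the treated-group measurement divided by that of the vehicle-treated control group.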

[1] = dose: 12.5 mg/kg/injection, schedule: Q01DX005 (ip), vehicle: saline with Tween-80
[2] = dose: 25.0 mg/kg/injection, schedule: Q01DX005 (ip), vehicle: saline with Tween-80
[3] = dose: 50.0 mg/kg/injection, schedule: Q01DX005 (ip), vehicle: saline with Tween-80

## O=C(CCl)NC(Cc1ccc(N(CCCl)CCCl)cc1)C(=O)O (configuration not stated)
dose: 0.25 mg/kg/injection, schedule: Q01DX009 (ip), vehicle: Klucel (hydroxypropylcellulose) (HPC)
  T/C: 113 % of control and 96 % of control
dose: 0.5 mg/kg/injection, schedule: Q01DX009 (ip), vehicle: Klucel (hydroxypropylcellulose) (HPC)
  T/C: 109 % of control and 115 % of control
dose: 1.0 mg/kg/injection, schedule: Q01DX009 (ip), vehicle: Klucel (hydroxypropylcellulose) (HPC)
  T/C: 102 % of control and 115 % of control
dose: 2.0 mg/kg/injection, schedule: Q01DX001 (ip), vehicle: Klucel (hydroxypropylcellulose) (HPC)
  T/C: 107 % of control
dose: 4.0 mg/kg/injection, schedule: Q01DX001 (ip), vehicle: Klucel (hydroxypropylcellulose) (HPC)
  T/C: 108 % of control
dose: 8.0 mg/kg/injection, schedule: Q01DX001 (ip), vehicle: Klucel (hydroxypropylcellulose) (HPC)
  T/C: 119 % of control
dose: 128.0 mg/kg/injection, schedule: Q01DX009 (ip), vehicle: Klucel (hydroxypropylcellulose) (HPC)
  T/C: 166 % of control
dose: 256.0 mg/kg/injection, schedule: Q01DX009 (ip), vehicle: Klucel (hydroxypropylcellulose) (HPC)
  T/C: 223 % of control

## CCn1c(COc2c(I)cc(I)c3cccnc23)n[nH]c1=S
dose: 6.25 mg/kg/injection, schedule: Q01DX005 (ip), vehicle: Klucel (hydroxypropylcellulose) (HPC)
  T/C: 96 % of control
dose: 12.5 mg/kg/injection, schedule: Q01DX005 (ip), vehicle: Klucel (hydroxypropylcellulose) (HPC)
  T/C: 98 % of control
dose: 25.0 mg/kg/injection, schedule: Q01DX005 (ip), vehicle: Klucel (hydroxypropylcellulose) (HPC)
  T/C: 102 % of control
dose: 50.0 mg/kg/injection, schedule: Q01DX005 (ip), vehicle: Klucel (hydroxypropylcellulose) (HPC)
  T/C: 98 % of control

## COC(=O)c1cc(=O)nc(NN=C2c3ccccc3-c3ccccc32)s1
[1]
  T/C: 97 % of control
[2]
  T/C: 94 % of control
[3]
  T/C: 88 % of control and 92 % of control

## c1ccc2c(NCCCCCCNc3c4ccccc4nc4ccccc34)c3ccccc3nc2c1
dose: 0.62 mg/kg/injection, schedule: Q## X009 (ip), vehicle: lactic acid
  T/C: 124 % of control
dose: 1.25 mg/kg/injection, schedule: Q01DX009 (ip), vehicle: Klucel (hydroxypropylcellulose) (HPC)
  T/C: 119 % of control
dose: 1.25 mg/kg/injection, schedule: Q01DX009 (ip), vehicle: water
  T/C: 121 % of control
dose: 1.25 mg/kg/injection, schedule: Q01DX009 (oral), vehicle: Klucel (hydroxypropylcellulose) (HPC)
  T/C: 99 % of control
dose: 2.16 mg/kg/injection, schedule: Q01DX009 (ip), vehicle: Klucel (hydroxypropylcellulose) (HPC)
  T/C: 155 % of control
dose: 2.16 mg/kg/injection, schedule: Q01DX009 (ip), vehicle: lactic acid
  T/C: 156 % of control
dose: 2.5 mg/kg/injection, schedule: Q01DX009 (oral), vehicle: Klucel (hydroxypropylcellulose) (HPC)
  T/C: 106 % of control
dose: 2.5 mg/kg/injection, schedule: Q## X009 (ip), vehicle: lactic acid
  T/C: 152 % of control
dose: 2.59 mg/kg/injection, schedule: Q01DX009 (ip), vehicle: lactic acid
  T/C: 150 % of control
dose: 3.6 mg/kg/injection, schedule: Q01DX009 (ip), vehicle: Klucel (hydroxypropylcellulose) (HPC)
  T/C: 163 % of control
dose: 3.6 mg/kg/injection, schedule: Q01DX009 (ip), vehicle: lactic acid
  T/C: 154 % of control
dose: 4.32 mg/kg/injection, schedule: Q01DX009 (ip), vehicle: lactic acid
  T/C: 150 % of control
dose: 5.0 mg/kg/injection, schedule: Q01DX009 (oral), vehicle: Klucel (hydroxypropylcellulose) (HPC)
  T/C: 93 % of control
dose: 5.4 mg/kg/injection, schedule: Q01DX009 (ip), vehicle: other
  T/C: 156 % of control
dose: 6.0 mg/kg/injection, schedule: Q01DX009 (ip), vehicle: Klucel (hydroxypropylcellulose) (HPC)
  T/C: 180 % of control
dose: 7.2 mg/kg/injection, schedule: Q01DX009 (ip), vehicle: Klucel (hydroxypropylcellulose) (HPC)
  T/C: 157 % of control
dose: 7.2 mg/kg/injection, schedule: Q01DX009 (ip), vehicle: lactic acid
  T/C: 150 % of control
dose: 7.2 mg/kg/injection, schedule: Q04DX003 (ip), vehicle: other
  T/C: 118 % of control
dose: 7.78 mg/kg/injection, schedule: Q01DX003 (ip), vehicle: water
  T/C: 101 % of control
dose: 7.78 mg/kg/injection, schedule: Q01DX009 (oral), vehicle: Klucel (hydroxypropylcellulose) (HPC)
  T/C: 101 % of control
dose: 7.78 mg/kg/injection, schedule: Q01DX009 (oral), vehicle: lactic acid
  T/C: 111 % of control
dose: 9.0 mg/kg/injection, schedule: Q01DX009 (ip), vehicle: other
  T/C: 165 % of control
dose: 10.0 mg/kg/injection, schedule: Q01DX009 (ip), vehicle: Klucel (hydroxypropylcellulose) (HPC)
  T/C: 173 % of control
dose: 10.0 mg/kg/injection, schedule: Q01DX009 (ip), vehicle: other
  T/C: 150 % of control
dose: 10.0 mg/kg/injection, schedule: Q01DX009 (ip), vehicle: water
  T/C: 150 % of control
dose: 10.0 mg/kg/injection, schedule: Q01DX009 (oral), vehicle: Klucel (hydroxypropylcellulose) (HPC)
  T/C: 97 % of control
dose: 12.0 mg/kg/injection, schedule: Q01DX009 (ip), vehicle: Klucel (hydroxypropylcellulose) (HPC)
  T/C: 154 % of control
dose: 12.0 mg/kg/injection, schedule: Q04DX003 (ip), vehicle: other
  T/C: 95 % of control
dose: 13.0 mg/kg/injection, schedule: Q01DX003 (ip), vehicle: water
  T/C: 101 % of control
dose: 13.0 mg/kg/injection, schedule: Q01DX009 (oral), vehicle: Klucel (hydroxypropylcellulose) (HPC)
  T/C: 100 % of control
dose: 13.0 mg/kg/injection, schedule: Q01DX009 (oral), vehicle: lactic acid
  T/C: 104 % of control
dose: 15.0 mg/kg/injection, schedule: Q01DX009 (ip), vehicle: other
  T/C: 168 % of control
dose: 20.0 mg/kg/injection, schedule: Q01DX009 (oral), vehicle: Klucel (hydroxypropylcellulose) (HPC)
  T/C: 108 % of control
dose: 21.6 mg/kg/injection, schedule: Q01DX009 (oral), vehicle: Klucel (hydroxypropylcellulose) (HPC)
  T/C: 100 % of control
dose: 21.6 mg/kg/injection, schedule: Q01DX009 (oral), vehicle: lactic acid
  T/C: 96 % of control
dose: 36.0 mg/kg/injection, schedule: Q01DX009 (oral), vehicle: Klucel (hydroxypropylcellulose) (HPC)
  T/C: 104 % of control
dose: 36.0 mg/kg/injection, schedule: Q01DX009 (oral), vehicle: lactic acid
  T/C: 96 % of control
dose: 40.0 mg/kg/injection, schedule: Q01DX009 (oral), vehicle: Klucel (hydroxypropylcellulose) (HPC)
  T/C: 93 % of control
dose: 60.0 mg/kg/injection, schedule: Q01DX009 (oral), vehicle: Klucel (hydroxypropylcellulose) (HPC)
  T/C: 96 % of control
dose: 60.0 mg/kg/injection, schedule: Q01DX009 (oral), vehicle: lactic acid
  T/C: 93 % of control
dose: 80.0 mg/kg/injection, schedule: Q01DX009 (oral), vehicle: Klucel (hydroxypropylcellulose) (HPC)
  T/C: 97 % of control
dose: 100.0 mg/kg/injection, schedule: Q01DX009 (oral), vehicle: Klucel (hydroxypropylcellulose) (HPC)
  T/C: 95 % of control
dose: 100.0 mg/kg/injection, schedule: Q01DX009 (oral), vehicle: lactic acid
  T/C: 99 % of control
dose: 167.0 mg/kg/injection, schedule: Q01DX009 (oral), vehicle: Klucel (hydroxypropylcellulose) (HPC)
  T/C: 108 % of control
dose: 167.0 mg/kg/injection, schedule: Q01DX009 (oral), vehicle: lactic acid
  T/C: 103 % of control

## CC12CC3(Nc4ccccc4C3(C)O)OC1(C)c1ccccc1N2 (configuration not stated)
[3]
  T/C: 95 % of control
dose: 100.0 mg/kg/injection, schedule: Q01DX005 (ip), vehicle: saline with Tween-80
  T/C: 92 % of control
dose: 200.0 mg/kg/injection, schedule: Q01DX005 (ip), vehicle: saline with Tween-80
  T/C: 92 % of control

## N#CC(Cc1ccc(Cl)cc1)c1ccccc1 (configuration not stated)
dose: 50.0 mg/kg/injection, schedule: Q01DX009 (ip), vehicle: Klucel (hydroxypropylcellulose) (HPC)
  T/C: 89 % of control
dose: 100.0 mg/kg/injection, schedule: Q01DX009 (ip), vehicle: Klucel (hydroxypropylcellulose) (HPC)
  T/C: 95 % of control
dose: 200.0 mg/kg/injection, schedule: Q01DX009 (ip), vehicle: Klucel (hydroxypropylcellulose) (HPC)
  T/C: 96 % of control

## O=C(NC(CCSSCCC(NC(=O)OCc1ccccc1)C(=O)OCc1ccccc1)C(=O)OCc1ccccc1)OCc1ccccc1 (configuration not stated)
dose: 12.5 mg/kg/injection, schedule: Q01DX009 (ip), vehicle: other
  T/C: 91 % of control
dose: 25.0 mg/kg/injection, schedule: Q01DX009 (ip), vehicle: other
  T/C: 98 % of control
dose: 50.0 mg/kg/injection, schedule: Q01DX009 (ip), vehicle: other
  T/C: 94 % of control
dose: 100.0 mg/kg/injection, schedule: Q01DX009 (ip), vehicle: other
  T/C: 98 % of control
dose: 200.0 mg/kg/injection, schedule: Q01DX009 (ip), vehicle: other
  T/C: 100 % of control

## O=C1NC(=O)C2C3CCC(C12)C1C2C(=O)NC(=O)C2C31 (configuration not stated)
[1]
  T/C: 91 % of control
[2]
  T/C: 93 % of control
[3]
  T/C: 101 % of control and 91 % of control

## CC(C)CCNc1ncnc2[nH]ncc12
dose: 25.0 mg/kg/injection, schedule: Q04DX003 (ip), vehicle: saline with Tween-80
  T/C: 95 % of control
dose: 50.0 mg/kg/injection, schedule: Q04DX003 (ip), vehicle: saline with Tween-80
  T/C: 95 % of control
dose: 100.0 mg/kg/injection, schedule: Q04DX003 (ip), vehicle: saline with Tween-80
  T/C: 100 % of control
